# Test results: patent US20220324770A1, “NITRIFICATION INHIBITORS” (The University of Melbourne, priority 2019, published 2022)
# Legend:
# [1] = test system: Horsham soil; assay: Soil microcosm incubation (nitrification of applied ammonium), Horsham soil
# [2] = test system: South Johnstone soil; assay: Soil microcosm incubation (nitrification of applied ammonium), South Johnstone soil; details: for Nitrified NH4+—N (%) Day 3 / Nitrified NH4+—N (%) Day 7 / Nitrified NH4+—N (%) Day 14 / Nitrified NH4+—N (%) Day 21 / Nitrified NH4+—N (%) Day 28: 10 mol %
# [3] = test system: Dahlen soil; assay: Soil microcosm incubation (nitrification of applied ammonium), Dahlen soil; details: for Nitrified NH4+—N (%) Day 3 / Nitrified NH4+—N (%) Day 7 / Nitrified NH4+—N (%) Day 14 / Nitrified NH4+—N (%) Day 21 / Nitrified NH4+—N (%) Day 28: 10 mol %
# [4] = test system: Terang soil; assay: Soil microcosm incubation (nitrification of applied ammonium), Terang soil
# Method: The soil used in this study was collected from four different locations in Victoria, Australia: (i) a wheat cropping soil from Horsham (36° 45′S, 142° 07′ E), (ii) a rotational cropping soil from Dahlen (36° 37′S, 142° 09′ E), (iii) a vegetable growing soil from Clyde (38° 08′S, 145° 20′ E), and (iv) a pasture soil from Terang (38° 15′S, 142° 52′E). In addition, a sugarcane cropping soil from South Johnstone in northern Queensland (17° 34′S, 145° 57′ E) was also studied. The water content of the soil was calculated before commencing each experiment, from samples that were oven-dried to constant weight. The soil's water-filled pore space (WFPS) was in the range 52%-61%, which is within the recommended 50-70% range for microbial activity due to oxygen and nutrient availability (Fichtner, T., et al., Applied Sciences, 2019, 9, 496).
# Soil microcosm incubations were carried out in 250 ml polypropylene specimen containers (Sarstedt, Germany), containing 18.24 g oven dry-weight equivalent of soil. Microcosms were re-wetted and pre-incubated at the test temperature for seven days to revive soil microbial activity. Following pre-incubation, the remaining volume to reach the desired water-filled pore spaces (WFPS %) was applied as one of the following treatment solutions; (NH4)2SO4(Control), (NH4)2SO4+DMPP, or (NH4)2SO4+one of Compounds 1-23. Each treatment was applied in triplicate per soil type, so that n=3 at each time point.
# Treatment solutions were prepared such that each microcosm received (NH4)2SO4 at a rate of 100 mg N per kg soil, Compounds 1-23 at 10 mol % of applied N, or DMPP at one of 1.5, 3.6 or 10 mol % of applied N, referred to as L-DMPP, M-DMPP or H-DMPP respectively.
# The microcosms were incubated for 0, 3, 7, 14, 21 or 28 days, where day 0 samples were extracted following 1-hour incubation post-treatment. Soil microcosms were aerated and moisture levels were replenished based on weight loss every few days throughout the incubation period.
# At the end of each incubation period, soil microcosms were destructively sampled by treatment with 2M KCl (100 mL). After shaking for 1 hour, soil-KCl solutions were filtered (Whatman 42) before storing the filtrates at −20° C. until the conclusion of the experiment. All KCl extracts were then analysed by Segmented Flow Analysis (San++, Skalar, Breda, The Netherlands) for the concentration of nitrogen from ammonium (NH4^+—N) and nitrogen from NO3 and NO2 (NOx^−—N) after appropriate dilutions. Results are reported as the mean of three replicates, errors reported are standard errors of the mean.
# Nitrification calculations were performed as previously reported (Aulakh, M., et al., Biology and Fertility of Soils 2001, 33, 258-263; Mahmood, T., et al., Soil Research 2017, 55, 715-722) without correction for the initial baseline concentrations of NH4^+—N or NO3^− N in the untreated soil. For each treatment nitrified NH4^+—N (%) was calculated according to eqn. 1:
# where [NH4^+—N]0 is the NH4^+—N concentration (in mg N kg^−1 soil) of the soil on day 0 and [NH4^+—N]t is the NH4^+—N concentration (in mg N kg^−1 soil) of the soil at a given time point t.
# [5] = Horsham soil pH 8.8, 25° C., 10 mol %
# [6] = Horsham soil pH 8.8, 35° C., 10 mol %
# [7] = South Johnstone soil pH 5.0, 25° C.
# [8] = South Johnstone soil pH 5.0, 35° C.
# [9] = Table 4, Dahlen soil pH 7.3, 25° C.
# [10] = Table 4, Dahlen soil pH 7.3, 35° C.
# [11] = Table 5, Dahlen soil pH 7.3, 25° C.
# [12] = Table 5, Dahlen soil pH 7.3, 35° C.
structure (smiles),measurement,setting,value
"Cc1c[nH]nc1C.O=P(O)(O)O [DMPP, 3,4-dimethylpyrazole phosphate, reference compound]",Nitrified NH4+—N (%) Day 3,"[1]; Horsham soil pH 8.8, 25° C., inhibitors 10 mol % of applied N",−6.9 ± 2.8%
same,Nitrified NH4+—N (%) Day 7,[1]; [5],8.5 ± 2.8%
same,Nitrified NH4+—N (%) Day 14,[1]; [5],37.2 ± 2.3%
same,Nitrified NH4+—N (%) Day 21,[1]; [5],75.7 ± 5.4%
same,Nitrified NH4+—N (%) Day 28,[1]; [5],76.2 ± 2.1%
same,Nitrified NH4+—N (%) Day 3,[1]; [6],7.9 ± 3.0%
same,Nitrified NH4+—N (%) Day 7,[1]; [6],18.9 ± 2.8%
same,Nitrified NH4+—N (%) Day 14,[1]; [6],32.3 ± 4.1%
same,Nitrified NH4+—N (%) Day 21,[1]; [6],46.6 ± 5.9%
same,Nitrified NH4+—N (%) Day 28,[1]; [6],64.5 ± 12.7%
same,NOx−—N accumulation: effect of temperature (25° C. vs 35° C.),"[1]; Horsham soil, 28-day incubation",greatest increase in production rate at the higher test temperature
same,retaining NH4+ and preventing NOx production (statistics vs control),"[1]; Horsham soil, 35° C.",performed statistically better
same,NH4+—N consumption,"[1]; Horsham soil, 35° C., after 28 days",65%
same,Nitrified NH4+—N (%) Day 3,"[2]; South Johnstone soil pH 5.0, 25° C., negative = NH4+—N higher than day 0 (mineralisation)",−12.5 ± 8.8%
same,Nitrified NH4+—N (%) Day 7,[2]; [7],−10.3 ± 0.7%
same,Nitrified NH4+—N (%) Day 14,[2]; [7],−12.5 ± 0.6%
same,Nitrified NH4+—N (%) Day 21,[2]; [7],−12.0 ± 1.6%
same,Nitrified NH4+—N (%) Day 28,[2]; [7],−7.5 ± 0.5%
same,Nitrified NH4+—N (%) Day 3,[2]; [8],−12.3 ± 1.2%
same,Nitrified NH4+—N (%) Day 7,[2]; [8],−25.3 ± 0.9%
same,Nitrified NH4+—N (%) Day 14,[2]; [8],−28.1 ± 1.3%
same,Nitrified NH4+—N (%) Day 21,[2]; [8],−23.0 ± 2.3%
same,Nitrified NH4+—N (%) Day 28,[2]; [8],−0.90 ± 2.3%
same,"effectiveness among the treatments (NH4+—N retention, NOx−—N growth)","[2]; South Johnstone soil, 25° C., days 21 and 28",least effective
same,performance at higher temperature,"[3]; Dahlen soil, 35° C. vs 25° C.",performed significantly poorer at the higher temperature
same,retaining NH4+—N vs (NH4)2SO4-treated control by day 28,"[3]; Dahlen soil, 35° C., Table 5 test",remain highly effective
same,nitrified ammonia,"[3]; Dahlen soil, 35° C., day 21 (Table 5)",52%
same,Nitrified NH4+—N (%) Day 3,[3]; [9],2.1 ± 2.8%
same,Nitrified NH4+—N (%) Day 7,[3]; [9],11.7 ± 6.7%
same,Nitrified NH4+—N (%) Day 14,[3]; [9],17.3 ± 12.7%
same,Nitrified NH4+—N (%) Day 21,[3]; [9],18.2 ± 6.6%
same,Nitrified NH4+—N (%) Day 28,[3]; [9],18.6 ± 4.9%
same,Nitrified NH4+—N (%) Day 3,[3]; [10],2.4 ± 3.0%
same,Nitrified NH4+—N (%) Day 7,[3]; [10],24.8 ± 2.7%
same,Nitrified NH4+—N (%) Day 14,[3]; [10],25.6 ± 3.8%
same,Nitrified NH4+—N (%) Day 21,[3]; [10],48.3 ± 6.4%
same,Nitrified NH4+—N (%) Day 28,[3]; [10],60.5 ± 8.4%
same,Nitrified NH4+—N (%) Day 3,"[3]; Table 5 (further comparative test), Dahlen soil pH 7.3, 25° C.",4.9 ± 3.1%
same,Nitrified NH4+—N (%) Day 7,[3]; [11],11.0 ± 3.2%
same,Nitrified NH4+—N (%) Day 14,[3]; [11],17.4 ± 4.2%
same,Nitrified NH4+—N (%) Day 21,[3]; [11],28.7 ± 5.2%
same,Nitrified NH4+—N (%) Day 28,[3]; [11],21.8 ± 3.3%
same,Nitrified NH4+—N (%) Day 3,[3]; [12],15.3 ± 2.9%
same,Nitrified NH4+—N (%) Day 7,[3]; [12],15.8 ± 2.5%
same,Nitrified NH4+—N (%) Day 14,[3]; [12],16.0 ± 6.0%
same,Nitrified NH4+—N (%) Day 21,[3]; [12],51.5 ± 5.4%
same,Nitrified NH4+—N (%) Day 28,[3]; [12],38.5 ± 2.9%
same,Nitrified NH4+—N (%) Day 3,"[4]; Terang soil pH 6.5, 25° C., day 3, compounds 10 mol % of applied N, L-DMPP 1.5 mol %, (NH4)2SO4 100 mg N per kg soil",23.5 ± 3.7%
same,Nitrified NH4+—N (%) Day 7,"[4]; Terang soil pH 6.5, 25° C., day 7, compounds 10 mol %, L-DMPP 1.5 mol %",47.8 ± 2.0%
same,Nitrified NH4+—N (%) Day 14,"[4]; Terang soil pH 6.5, 25° C., day 14, compounds 10 mol %, L-DMPP 1.5 mol %",89.6 ± 3.1%
same,Nitrified NH4+—N (%) Day 28,"[4]; Terang soil pH 6.5, 25° C., day 28, compounds 10 mol %, L-DMPP 1.5 mol %",100 ± 2.5%
same,retaining NH4+—N in the soil compared with the fertilised control,"[4]; Terang soil, 25° C.",most effective treatments
